This experiment deals with C. albicans. The experiment can be described thus: Broth microdilution assay of synergistic lethality with 4 μg/mL FLC (recovery on drug-free YPD). Format: cell-based, Candida albicans. (In general: In broth dilution the organism is exposed to a series of concentrations in liquid medium.)
Setting [1] is: concentration of the compound that is synergistically lethal with 4 μg/mL FLC, C. albicans, recovery on drug-free YPD.

Each structure is given as a SMILES string. Where a name gives a salt, the structure may show the parent alone. Read-outs that look alike come from different tables or passages of the source.

For the molecule `CN1CCC(=C2c3ccccc3C=Cc3ccccc32)CC1.CN1CCC(=C2c3ccccc3C=Cc3ccccc32)CC1.Cl.Cl.O.O.O`, under setting [1], the Synergistic lethal concentrations came out at 100 µM.
`CC=CC(=O)N(CC)c1ccccc1C` (mixture of isomers) [Crotamiton]: the Synergistic lethal concentrations under setting [1] amounted to 100 µM.
Still for that read-out and setting: with `Cl.Cl.OCCN1CCN(CCC=C2c3ccccc3Sc3ccc(C(F)(F)F)cc32)CC1` (mixture of isomers) [Flupentixol dihydrochloride] the figure was 100 µM; with `COC(=O)C1=C(C)NC(C)=C(C(=O)O[C@@H]2CCCN(Cc3ccccc3)C2)[C@@H]1c1cccc([N+](=O)[O-])c1.Cl` (racemic) [Benidipine (hydrochloride)], 100 µM; with `O=C(c1ccc(F)c(F)c1Nc1ccc(I)cc1F)N1CC(O)([C@@H]2CCCCN2)C1` (racemic) [Cobimetinib (racemate)], 25 µM.
On to `Nc1c2ccccc2nc2ccccc12` [9-Aminoacridine], for which the Synergistic lethal concentrations under setting [1] was found to be 100 µM.
Still for that read-out and setting: to `CN(C)C/C=C/C(=O)Nc1cc2c(Nc3ccc(F)c(Cl)c3)ncnc2cc1O[C@H]1CCOC1.O=C(O)/C=C\C(=O)O.O=C(O)/C=C\C(=O)O` [Afatinib (dimaleate)] belongs 100 µM.
On the same count and under the same terms, to `CN(C)C/C=C/C(=O)Nc1cc2c(Nc3ccc(F)c(Cl)c3)ncnc2cc1O[C@H]1CCOC1` [Afatinib] belongs 100 µM; to `C=CC(=O)Nc1cc(Nc2nccc(-c3cn(C4CC4)c4ccccc34)n2)c(OC)cc1N(C)CCN(C)C.Cl` [Almonertinib (hydrochloride)], 12.5 µM; to `C=CC(=O)Nc1cc(Nc2nccc(-c3cn(C4CC4)c4ccccc34)n2)c(OC)cc1N(C)CCN(C)C` [Almonertinib], 25 µM.
Turning to `CN(C)CCC=C1c2ccccc2CCc2ccccc21.Cl` [Amitriptyline (hydrochloride)], the Synergistic lethal concentrations under setting [1] came out at 100 µM.
The same measure, in the same setting: with `CCOC(=O)C1=C(COCCN)NC(C)=C(C(=O)OC)C1c1ccccc1Cl.O=C(O)/C=C\C(=O)O` (centres unmarked) [Amlodipine (maleate)] the figure was 100 µM; with `CCOC(=O)C1=C(COCCN)NC(C)=C(C(=O)OC)C1c1ccccc1Cl` (centres unmarked) [Amlodipine], 100 µM.
On the same count and under the same terms, to `CCC(C)(C)c1ccc(CC(C)CN2C[C@@H](C)O[C@@H](C)C2)cc1.Cl` (some centres unmarked) [Amorolfine (hydrochloride)] belongs 100 µM; to `Clc1ccc2c(c1)C(N1CCNCC1)=Nc1ccccc1O2` [Amoxapine], 100 µM.
On the same count and under the same terms, to `CN(C)N(C)C(=O)[C@@]1(Cc2ccccc2)CCCN(C(=O)[C@@H](Cc2c[nH]c3ccccc23)NC(=O)C(C)(C)N)C1.Cl` [Anamorelin (hydrochloride)] belongs 100 µM; to `CNCC[C@@H](Oc1ccccc1C)c1ccccc1.Cl` [Atomoxetine (hydrochloride)], 100 µM; to `CN1[C@@H]2CC[C@H]1C[C@@H](OC(c1ccccc1)c1ccccc1)C2.CS(=O)(=O)O` [Benztropine (mesylate)], 100 µM.
On to `CCN1CCN(c2cc(-c3ccc(F)cc3)c3c(n2)CCCCCC3)CC1` [Blonanserin], for which the Synergistic lethal concentrations under setting [1] amounted to 50 µM.
Still for that read-out and setting: to `COc1cc(Nc2c(C#N)cnc3cc(OCCCN4CCN(C)CC4)c(OC)cc23)c(Cl)cc1Cl` [Bosutinib] belongs 25 µM; to `CCCCOc1ccc(CC(=O)NO)cc1` [Bufexamac], 100 µM; to `Cc1ccc([C@@H]2O[C@H](CO)[C@@H](O)[C@H](O)[C@H]2O)cc1Cc1ccc(-c2ccc(F)cc2)s1.O` [Canagliflozin (hemihydrate)], 100 µM.
On the same count and under the same terms, with `Cc1ccc([C@@H]2O[C@H](CO)[C@@H](O)[C@H](O)[C@H]2O)cc1Cc1ccc(-c2ccc(F)cc2)s1` [Canagliflozin] the figure was 100 µM.
Same read-out and setting: with `C[N+](C)(CC(=O)Nc1ccccc1)CC(=O)Nc1ccccc1.[Cl-]` [Carcainium (chloride)] the figure was 100 µM.
As to `COc1ccccc1OCCNCC(O)COc1cccc2[nH]c3ccccc3c12` (centres unmarked) [Carvedilol], the Synergistic lethal concentrations under setting [1] is 100 µM.
Still for that read-out and setting: with `Cc1cc(Nc2ncc(Cl)c(Nc3ccccc3S(=O)(=O)C(C)C)n2)c(OC(C)C)cc1C1CCNCC1.Cl.Cl` [Ceritinib dihydrochloride] the figure was 12.5 µM; with `Cc1cc(Nc2ncc(Cl)c(Nc3ccccc3S(=O)(=O)C(C)C)n2)c(OC(C)C)cc1C1CCNCC1` [Ceritinib], 12.5 µM; with `N=C(NCCCCCCNC(=N)NC(=N)Nc1ccc(Cl)cc1)NC(=N)Nc1ccc(Cl)cc1.O=C(O)[C@H](O)[C@@H](O)[C@H](O)[C@H](O)CO.O=C(O)[C@H](O)[C@@H](O)[C@H](O)[C@H](O)CO` [Chlorhexidine (digluconate)], 6.25 µM.
Regarding `CN(C)CC/C=C1/c2ccccc2Sc2ccc(Cl)cc21` [Chlorprothixene], the Synergistic lethal concentrations under setting [1] was 100 µM.
On to `C[C@@H](NCCCc1cccc(C(F)(F)F)c1)c1cccc2ccccc12.Cl` [Cinacalcet (hydrochloride)], for which, under setting [1], the Synergistic lethal concentrations turned out to be 100 µM.
The same measure, in the same setting: with `C[C@@H](NCCCc1cccc(C(F)(F)F)c1)c1cccc2ccccc12` [Cinacalcet] the figure was 100 µM; with `Oc1c(I)cc(Cl)c2cccnc12` [Clioquinol], 12.5 µM.
For the molecule `CN1CCN(C2=Nc3cc(Cl)ccc3Nc3ccccc32)CC1` [Clozapine], the Synergistic lethal concentrations under setting [1] came to 100 µM.
As to `CC(C)c1nc(CN(C)C(=O)N[C@@H](CCN2CCOCC2)C(=O)N[C@H](CC[C@H](Cc2ccccc2)NC(=O)OCc2cncs2)Cc2ccccc2)cs1` [Cobicistat], the Synergistic lethal concentrations under setting [1] is 100 µM.
Still for that read-out and setting: with `O=C(O)/C=C/C(=O)O.O=C(c1ccc(F)c(F)c1Nc1ccc(I)cc1F)N1CC(O)([C@@H]2CCCCN2)C1.O=C(c1ccc(F)c(F)c1Nc1ccc(I)cc1F)N1CC(O)([C@@H]2CCCCN2)C1` [Cobimetinib (hemifumarate)] the figure was 50 µM.
On to `O=C(c1ccc(F)c(F)c1Nc1ccc(I)cc1F)N1CC(O)([C@@H]2CCCCN2)C1` [Cobimetinib], for which the Synergistic lethal concentrations under setting [1] was found to be 50 µM.
On the same count and under the same terms, to `Cc1nc2c([nH]1)-c1ccccc1N(C(=O)c1ccc(NC(=O)c3ccccc3-c3ccccc3)cc1)CC2.Cl` [Conivaptan (hydrochloride)] belongs 100 µM; to `CC1CC(OC(=O)C(O)c2ccccc2)CC(C)(C)C1` (centres unmarked) [Cyclandelate], 100 µM.
For `CN(C)CCC=C1c2ccccc2C=Cc2ccccc21.Cl` [Cyclobenzaprine (hydrochloride)], the Synergistic lethal concentrations under setting [1] is 100 µM.
The same measure, in the same setting: with `CN1CCC(=C2c3ccccc3C=Cc3ccccc32)CC1.Cl` [Cyproheptadine (hydrochloride)] the figure was 50 µM; with `CCCCCCOC(=O)NC(=N)c1ccc(NCc2nc3cc(C(=O)N(CCC(=O)OCC)c4ccccn4)ccc3n2C)cc1.CS(=O)(=O)O` [Dabigatran etexilate (mesylate)], 50 µM; with `CCCCCCOC(=O)N=C(N)c1ccc(NCc2nc3cc(C(=O)N(CCC(=O)OCC)c4ccccn4)ccc3n2C)cc1` [Dabigatran etexilate], 6.25 µM.
Still for that read-out and setting: with `COc1cc2ncnc(Nc3ccc(F)c(Cl)c3)c2cc1NC(=O)/C=C/CN1CCCCC1` [Dacomitinib] the figure was 100 µM.
Still for that read-out and setting: to `CN(C)[C@@H](CCOc1cccc2ccccc12)c1ccccc1.Cl` [Dapoxetine (hydrochloride)] belongs 50 µM.
As for `Br.NC(=O)C(c1ccccc1)(c1ccccc1)[C@@H]1CCN(CCc2ccc3c(c2)CCO3)C1` [Darifenacin (hydrobromide)], the Synergistic lethal concentrations was determined as 100 µM.
For `CNCCCN1c2ccccc2CCc2ccccc21` [Desipramine hydrochloride], the Synergistic lethal concentrations under setting [1] turned out to be 100 µM.
`O=C(O)c1cc(-c2ccc(F)cc2F)ccc1O` [Diflunisal]: the Synergistic lethal concentrations under setting [1] was 100 µM.
`CC(C)[C@@]1(NC(=O)[C@@H]2C[C@@H]3c4cccc5[nH]cc(c45)C[C@H]3N(C)C2)O[C@@]2(O)[C@@H]3CCCN3C(=O)[C@H](Cc3ccccc3)N2C1=O.CS(=O)(=O)O` [Dihydroergocristine (mesylate)]: the Synergistic lethal concentrations under setting [1] worked out at 100 µM.
Regarding `Cc1ccc2c(c1)[C@]13CCCC[C@@H]1[C@H](C2)N(C)CC3.O=P(O)(O)O` [Dimemorfan (phosphate)], under setting [1], the Synergistic lethal concentrations came to 100 µM.
On the same count and under the same terms, to `OCCN(CCO)c1nc(N2CCCCC2)c2nc(N(CCO)CCO)nc(N3CCCCC3)c2n1` [Dipyridamole] belongs 100 µM; to `CCN(CC)C(=S)SSC(=S)N(CC)CC` [Disulfiram], 100 µM; to `CCCCC(CC)COC(=O)CC(C(=O)OCC(CC)CCCC)S(=O)(=O)[O-].[Na+]` (centres unmarked) [Docusate (Sodium)], 100 µM.
Still for that read-out and setting: with `CCCCCCCCCCCC[N+](C)(C)CCOc1ccccc1.[Br-]` [Domiphen (bromide)] the figure was 0.1953 µM; with `O=c1[nH]c2ccccc2n1CCCN1CCC(n2c(=O)[nH]c3cc(Cl)ccc32)CC1` [Domperidone], 100 µM.
For the molecule `CCCCc1oc2ccc(NS(C)(=O)=O)cc2c1C(=O)c1ccc(OCCCN(CCCC)CCCC)cc1.Cl` [Dronedarone (Hydrochloride)], the Synergistic lethal concentrations under setting [1] is 100 µM.
Still for that read-out and setting: to `CCCCc1oc2ccc(NS(C)(=O)=O)cc2c1C(=O)c1ccc(OCCCN(CCCC)CCCC)cc1` [Dronedarone] belongs 100 µM.
Take `O=C(CCCN1CC=C(n2c(=O)[nH]c3ccccc32)CC1)c1ccc(F)cc1` [Droperidol]: the Synergistic lethal concentrations under setting [1] turned out to be 100 µM.
For the molecule `CNCC[C@H](Oc1cccc2ccccc12)c1cccs1.Cl` [Duloxetine (hydrochloride)], the Synergistic lethal concentrations is 50 µM.
Consider `CN1CCN(c2ccc(C(=O)Nc3n[nH]c4ccc(Cc5cc(F)cc(F)c5)cc34)c(NC3CCOCC3)c2)CC1` [Entrectinib], for which, under setting [1], the Synergistic lethal concentrations was 50 µM.

Source of the values: PMC11200976, “Pitavastatin Calcium Confers Fungicidal Properties to Fluconazole by Inhibiting Ubiquinone Biosynthesis and Generating Reactive Oxygen Species” (Antioxidants, 2024).
